Legend:
Type in all cases: functional
[1] = system: Thrips tabaci; assay: Thrips luring activity against female Thrips tabaci (onion thrips) assessed as ratio of thrips in baited traps to unbaited traps during field trapping study
[2] = system: Thrips obscuratus; assay: Thrips luring activity against female New Zealand Thrips obscuratus (flower thrips) assessed as ratio of thrips in baited traps to unbaited traps during field trapping study
[3] = system: Thrips obscuratus; assay: Thrips luring activity against male New Zealand Thrips obscuratus (flower thrips) assessed as ratio of thrips in baited traps to unbaited traps during field trapping study

CC(=O)/C=C/C1C(C)=CCCC1(C)C (stereo not drawn) [ALPHA-IONONE] was tested, and the Ratio [1] was 1.3, the Ratio [2] was 1.8 and the Ratio [3] was 0.
O=Cc1ccccc1O [SALICYLADEHYDE] showed a Ratio [1] of 1.9, a Ratio [2] of 20.7 and a Ratio [3] of 15.7.
CCOC(=O)c1ccncc1 [ETHYL ISONICOTINATE] showed a Ratio [1] of 30.8, a Ratio [2] of 31.6 and a Ratio [3] of 28.5.
Work on CCOC(=O)c1ccccn1 [ETHYL PICOLINATE] yielded a Ratio [1] of 2.8, a Ratio [2] of 4.1 and a Ratio [3] of 5.9.
With CC(=O)c1ccccc1N [2-AMINOACETOPHENONE] the Ratio [1] was 6, the Ratio [2] was 20.7 and the Ratio [3] was 26.7.
CC(C)OC(=O)c1ccncc1 [ISOPROPYL ISONICOTINATE] was tested, and the Ratio [1] was 8.8, the Ratio [2] was 9 and the Ratio [3] was 0.
Work on COC(=O)c1ccncc1 [METHYL ISONICOTINATE] yielded a Ratio [1] of 18.9, a Ratio [2] of 44.1 and a Ratio [3] of 5.1.
Work on COc1ccc(C=O)cc1 [ANISALDEHYDE] yielded a Ratio [1] of 4, a Ratio [2] of 26.2 and a Ratio [3] of 22.6.
In the case of CCOC(=O)C1CCNCC1 [ETHYL ISONIPECOTATE], the Ratio [1] is reported as 4, the Ratio [2] is reported as 0 and the Ratio [3] is reported as 0.
Work on O=Cc1ccncc1 [4-FORMYLPYRIDINE] yielded a Ratio [1] of 1.6, a Ratio [2] of 7.9 and a Ratio [3] of 4.9.
CC(=O)c1ccncc1 [METHYL 4-PYRIDYLKETONE] gave a Ratio [1] of 7.6, a Ratio [2] of 0 and a Ratio [3] of 10.3.
COC(=O)c1ccccc1 [METHYL BENZOATE] was tested, and the Ratio [1] was 6.6, the Ratio [2] was 49.1 and the Ratio [3] was 50.5.
Work on N#Cc1ccncc1 [ISONICOTINONITRILE] yielded a Ratio [1] of 2.4, a Ratio [2] of 0 and a Ratio [3] of 19.9.
CCOC(=O)c1ccnc(Cl)c1 [ETHYL-2-CHLOROPYRIDINE-4-CARBOXYLATE] was tested, and the Ratio [1] was 1.7, the Ratio [2] was 15.1 and the Ratio [3] was 19.3.
In the case of CCOC(=O)c1ccccc1 [ETHYL BENZOATE], the Ratio [1] is reported as 2.1, the Ratio [2] is reported as 35.4 and the Ratio [3] is reported as 24.8.
OCCc1ccccc1 [PHENYLETHYL ALCOHOL] gave a Ratio [1] of 3.8, a Ratio [2] of 9.8 and a Ratio [3] of 9.5.
Molecule CC/C=C\CC1=C(C)CCC1=O [CIS-JASMONE] has a Ratio [1] of 1.2, a Ratio [2] of 42.1 and a Ratio [3] of 24.5.
In the case of COC(=O)c1ccccc1N [METHYL ANTHRANILATE], the Ratio [1] is reported as 3.5, the Ratio [2] is reported as 28.3 and the Ratio [3] is reported as 22.1.
CCOC(=O)c1ccccc1N [ETHYL ANTHRANILATE] was tested, and the Ratio [1] was 1.1, the Ratio [2] was 1.6 and the Ratio [3] was 0.6.
Molecule CCOC(=O)c1ccccc1O [ETHYL SALICYLATE] has a Ratio [1] of 3, a Ratio [2] of 32.6 and a Ratio [3] of 48.5.
For CCCCCCCCCCOC(=O)c1ccncc1 [N-DECYL ISONICOTINATE], the Ratio [1] was 6.8, the Ratio [2] was 14.9 and the Ratio [3] was 0.
COC(=O)c1ccccc1O [METHYL SALICYLATE] showed a Ratio [1] of 4, a Ratio [2] of 24.8 and a Ratio [3] of 13.3.
Molecule ClC(Cl)Cl [CHLOROFORM] has a Ratio [1] of 1.1, a Ratio [2] of 0 and a Ratio [3] of 10.1.
Work on CCC(=O)c1ccncc1 [ETHYL 4-PYRIDYLKETONE] yielded a Ratio [1] of 13.5, a Ratio [2] of 19.4 and a Ratio [3] of 0.
In the case of CCOC(=O)c1cccnc1 [ETHYL NICOTINATE], the Ratio [1] is reported as 3.1, the Ratio [2] is reported as 157.6 and the Ratio [3] is reported as 84.8.
In the case of CCCOC(=O)c1ccncc1 [N-PROPYL ISONICOTINATE], the Ratio [1] is reported as 15.4, the Ratio [2] is reported as 9 and the Ratio [3] is reported as 0.
For OCCc1ccncc1 [4-(2-HYDROXYETHYL)PYRIDINE], the Ratio [1] was 1.3, the Ratio [2] was 0 and the Ratio [3] was 0.
For c1cc(C2OCCO2)ccn1 [PYRIDINE, 4-(1,3-DIOXALAN-2-YL)], the Ratio [1] was 5.3, the Ratio [2] was 16.6 and the Ratio [3] was 20.4.
Molecule CC(=O)/C=C/C1=C(C)CCCC1(C)C [BETA-IONONE] has a Ratio [1] of 2.6, a Ratio [2] of 1.8 and a Ratio [3] of 3.8.
O=Cc1ccccc1 [BENZALDEHYDE] gave a Ratio [1] of 4, a Ratio [2] of 5 and a Ratio [3] of 3.6.
Molecule CC/C=C\CC1C(=O)CCC1CC(=O)OC (stereo unspecified) [METHYL JASMONATE] has a Ratio [1] of 0.7, a Ratio [2] of 0.8 and a Ratio [3] of 0.9.
CCCCCCOC(=O)c1ccncc1 [ISONICOTINIC ACID HEXYL ESTER] was tested, and the Ratio [1] was 1.2, the Ratio [2] was 0 and the Ratio [3] was 0.

From ChEMBL document CHEMBL3046205, “4-pyridyl carbonyl and related compounds as thrips lures: effectiveness for onion thrips and new zealand flower thrips in field experiments” (2007)
